Where two headings read alike, the source gives them in different places.
Tested on: Phytophthora infestans
Assay type: in vivo
Conditions: individual active compound, tomato leaves, protective, evaluated after 6 days

Cc1ccc(C(C)NC(=O)[C@@H](NC(=O)OC(C)C)C(C)C)cc1 (stereo partly drawn) [II-3, iprovalicarb]
Efficacy in % of the untreated control (0.05 ppm in the spray liquor): 29% | Efficacy in % of the untreated control (0.1 ppm in the spray liquor): 53% | Efficacy in % of the untreated control (0.2 ppm in the spray liquor): 70%

Cc1ccc(-c2c(Cl)nc(C#N)n2S(=O)(=O)N(C)C)cc1 [Ia, cyazofamid]
Efficacy in % of the untreated control (0.05 ppm in the spray liquor): 53% | Efficacy in % of the untreated control (0.1 ppm in the spray liquor): 70% | Efficacy in % of the untreated control (0.2 ppm in the spray liquor): 82%
